Reference: ChEMBL document CHEMBL1138369, “Novel nucleotide triphosphates as potent P2Y2 agonists” (Bioorg Med Chem Lett, 2007)

Assays:
Assay type in all cases: functional
P2Y purinoceptor 2 = P2Y purinoceptor 2 (Homo sapiens, UniProt P41231); experiment: Agonist activity at human P2Y2 receptor expressed in human 1321N1 by FLIPR assay
P2Y purinoceptor 6 = P2Y purinoceptor 6 (Homo sapiens, UniProt Q15077); experiment: Agonist activity at human cloned P2Y6 receptor expressed in human 1321N1 by FLIPR assay
P2Y purinoceptor 1 = P2Y purinoceptor 1 (Homo sapiens, UniProt P47900); experiment: Agonist activity at human cloned P2Y1 receptor expressed in human 1321N1 by FLIPR assay
P2Y purinoceptor 4 = P2Y purinoceptor 4 (Homo sapiens, UniProt P51582); experiment: Agonist activity at human cloned P2Y4 receptor expressed in human 1321N1 by FLIPR assay
Chain of P2Y purinoceptor 4 (P51582 whole entry): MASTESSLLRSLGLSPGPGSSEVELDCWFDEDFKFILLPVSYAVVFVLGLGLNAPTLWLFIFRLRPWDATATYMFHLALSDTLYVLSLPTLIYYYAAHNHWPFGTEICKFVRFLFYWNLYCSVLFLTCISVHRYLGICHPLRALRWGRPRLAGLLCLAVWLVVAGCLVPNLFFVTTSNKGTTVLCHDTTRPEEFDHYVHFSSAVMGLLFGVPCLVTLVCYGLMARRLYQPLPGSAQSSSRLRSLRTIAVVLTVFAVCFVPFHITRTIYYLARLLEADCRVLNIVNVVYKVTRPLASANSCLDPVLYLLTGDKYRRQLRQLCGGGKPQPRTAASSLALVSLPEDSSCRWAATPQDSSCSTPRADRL

Chain of P2Y purinoceptor 2 (P41231 whole entry): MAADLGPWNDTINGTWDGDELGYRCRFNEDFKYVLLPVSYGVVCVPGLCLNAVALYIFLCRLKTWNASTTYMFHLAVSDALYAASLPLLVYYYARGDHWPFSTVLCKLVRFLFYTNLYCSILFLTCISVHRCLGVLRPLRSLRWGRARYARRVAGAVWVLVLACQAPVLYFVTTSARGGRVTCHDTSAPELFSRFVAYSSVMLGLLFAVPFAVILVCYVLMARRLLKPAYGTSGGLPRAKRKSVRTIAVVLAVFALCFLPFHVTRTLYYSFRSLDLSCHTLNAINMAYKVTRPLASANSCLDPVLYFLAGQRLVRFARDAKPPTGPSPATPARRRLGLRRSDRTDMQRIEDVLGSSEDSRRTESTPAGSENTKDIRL
Chain of P2Y purinoceptor 6 (Q15077 whole entry): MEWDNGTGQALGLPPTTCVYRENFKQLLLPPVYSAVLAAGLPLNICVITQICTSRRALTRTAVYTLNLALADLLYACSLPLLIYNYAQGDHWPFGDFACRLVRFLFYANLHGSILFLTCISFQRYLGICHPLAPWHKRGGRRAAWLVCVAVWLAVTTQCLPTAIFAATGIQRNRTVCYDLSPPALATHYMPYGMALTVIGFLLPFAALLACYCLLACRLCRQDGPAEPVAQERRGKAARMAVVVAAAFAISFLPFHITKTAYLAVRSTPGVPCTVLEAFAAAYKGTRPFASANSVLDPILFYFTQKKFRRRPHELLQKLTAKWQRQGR
Chain of P2Y purinoceptor 1 (P47900 whole entry): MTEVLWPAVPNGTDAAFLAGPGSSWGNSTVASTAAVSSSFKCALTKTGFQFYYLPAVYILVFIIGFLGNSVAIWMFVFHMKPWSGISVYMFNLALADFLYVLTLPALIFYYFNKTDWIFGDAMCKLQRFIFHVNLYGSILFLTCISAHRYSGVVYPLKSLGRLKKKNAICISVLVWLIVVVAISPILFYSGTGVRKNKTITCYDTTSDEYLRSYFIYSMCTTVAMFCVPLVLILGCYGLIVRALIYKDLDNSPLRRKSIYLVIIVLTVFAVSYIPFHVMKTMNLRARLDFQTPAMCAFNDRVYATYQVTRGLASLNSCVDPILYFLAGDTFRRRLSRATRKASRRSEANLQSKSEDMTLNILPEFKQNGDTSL

| SMILES | EC50 (P2Y purinoceptor 2) [nM] | EC50 (P2Y purinoceptor 6) [nM] | EC50 (P2Y purinoceptor 1) [nM] | EC50 (P2Y purinoceptor 4) [nM] |
| --- | --- | --- | --- | --- |
| COc1cc2ccn([C@@H]3O[C@H](COP(=O)(O)OP(=O)(O)OP(=O)(O)O)[C@@H](O)[C@H]3O)c(=O)c2cc1F | 6 |  |  |  |
| CS(=O)(=O)c1ccc2ccn([C@@H]3O[C@H](COP(=O)(O)OP(=O)(O)OP(=O)(O)O)[C@@H](O)[C@H]3O)c(=O)c2c1 | 650 |  |  |  |
| O=c1c2ccsc2ccn1[C@@H]1O[C@H](COP(=O)(O)OP(=O)(O)OP(=O)(O)O)[C@@H](O)[C@H]1O | 30 |  |  |  |
| O=c1c2cc(Cl)ccc2ccn1[C@@H]1O[C@H](COP(=O)(O)OP(=O)(O)OP(=O)(O)O)[C@@H](O)[C@H]1O | 10 | > 20000 | > 20000 | 20000 |
| Cc1cn([C@@H]2O[C@H](COP(=O)(O)OP(=O)(O)OP(=O)(O)O)[C@@H](O)[C@H]2O)c(=O)c2ccccc12 | 17500 |  |  |  |
| Cc1ccc2c(=O)n([C@@H]3O[C@H](COP(=O)(O)OP(=O)(O)OP(=O)(O)O)[C@@H](O)[C@H]3O)ccc2c1 | 35 |  |  |  |
| O=c1c2ccc(F)cc2ccn1[C@@H]1O[C@H](COP(=O)(O)OP(=O)(O)OP(=O)(O)O)[C@@H](O)[C@H]1O | 77 |  |  |  |
| Cc1cccc2ccn([C@@H]3O[C@H](COP(=O)(O)OP(=O)(O)OP(=O)(O)O)[C@@H](O)[C@H]3O)c(=O)c12 | 85 |  |  |  |
| O=c1c2cc(F)c(F)cc2ccn1[C@@H]1O[C@H](COP(=O)(O)OP(=O)(O)OP(=O)(O)O)[C@@H](O)[C@H]1O | 16 | > 20000 | > 20000 | > 20000 |
| Cc1cccc2c(=O)n([C@@H]3O[C@H](COP(=O)(O)OP(=O)(O)OP(=O)(O)O)[C@@H](O)[C@H]3O)ccc12 | 557 |  |  |  |
| CSc1cc2ccn([C@@H]3O[C@H](COP(=O)(O)OP(=O)(O)OP(=O)(O)O)[C@@H](O)[C@H]3O)c(=O)c2cc1F | 3 | > 20000 | > 20000 | > 20000 |
| O=c1c2cccnc2ccn1[C@@H]1O[C@H](COP(=O)(O)OP(=O)(O)OP(=O)(O)O)[C@@H](O)[C@H]1O | 35 |  |  |  |
| O=c1ccn([C@@H]2O[C@H](COP(=O)(O)OP(=O)(O)OP(=O)(O)O)[C@@H](O)[C@H]2O)c(=O)[nH]1 [URIDINE TRIPHOSPHATE] | 7 | 424 | > 2000 | 39 |

Other lines, results leading:

| EC50 (P2Y purinoceptor 2) [nM] | EC50 (P2Y purinoceptor 6) [nM] | EC50 (P2Y purinoceptor 1) [nM] | EC50 (P2Y purinoceptor 4) [nM] | SMILES |
| --- | --- | --- | --- | --- |
| 4 |  |  |  | CN(C)c1cc2ccn([C@@H]3O[C@H](COP(=O)(O)OP(=O)(O)OP(=O)(O)O)[C@@H](O)[C@H]3O)c(=O)c2cc1F |
| 55 |  |  |  | O=c1c2c(ccn1[C@@H]1O[C@H](COP(=O)(O)OP(=O)(O)OP(=O)(O)O)[C@@H](O)[C@H]1O)CCCC2 |
| 88 |  |  |  | N#Cc1ccc2c(=O)n([C@@H]3O[C@H](COP(=O)(O)OP(=O)(O)OP(=O)(O)O)[C@@H](O)[C@H]3O)ccc2c1 |
| 12 |  |  |  | N#Cc1ccc2ccn([C@@H]3O[C@H](COP(=O)(O)OP(=O)(O)OP(=O)(O)O)[C@@H](O)[C@H]3O)c(=O)c2c1 |
| 140 |  |  |  | CSc1ccc2ccn([C@@H]3O[C@H](COP(=O)(O)OP(=O)(O)OP(=O)(O)O)[C@@H](O)[C@H]3O)c(=O)c2c1 |
| 221 |  |  |  | O=c1c2occc2ccn1[C@@H]1O[C@H](COP(=O)(O)OP(=O)(O)OP(=O)(O)O)[C@@H](O)[C@H]1O |
| 148 |  |  |  | Cc1ccc2ccn([C@@H]3O[C@H](COP(=O)(O)OP(=O)(O)OP(=O)(O)O)[C@@H](O)[C@H]3O)c(=O)c2c1 |
| 541 |  |  |  | O=c1c2ccc(Cl)cc2ccn1[C@@H]1O[C@H](COP(=O)(O)OP(=O)(O)OP(=O)(O)O)[C@@H](O)[C@H]1O |
| 31 | > 20000 | > 20000 | 7040 | O=c1c2ccccc2ccn1[C@@H]1O[C@H](COP(=O)(O)OP(=O)(O)OP(=O)(O)O)[C@@H](O)[C@H]1O |
| 68 |  |  |  | O=c1c2ccoc2ccn1[C@@H]1O[C@H](COP(=O)(O)OP(=O)(O)OP(=O)(O)O)[C@@H](O)[C@H]1O |
| 13 |  |  |  | O=c1c2cc(Cl)c(Cl)cc2ccn1[C@@H]1O[C@H](COP(=O)(O)OP(=O)(O)OP(=O)(O)O)[C@@H](O)[C@H]1O |
| 5 | > 20000 | > 20000 | 3580 | O=c1c2cc(F)ccc2ccn1[C@@H]1O[C@H](COP(=O)(O)OP(=O)(O)OP(=O)(O)O)[C@@H](O)[C@H]1O |
| 26 |  |  |  | COc1ccc2ccn([C@@H]3O[C@H](COP(=O)(O)OP(=O)(O)OP(=O)(O)O)[C@@H](O)[C@H]3O)c(=O)c2c1 |
|  |  | > 20000 |  | O=c1ccn([C@@H]2O[C@H](COP(=O)(O)OP(=O)(O)OP(=O)(O)OP(=O)(O)OC[C@H]3O[C@@H](n4ccc(=O)[nH]c4=O)[C@H](O)[C@@H]3O)[C@@H](O)[C@H]2O)c(=O)[nH]1 [DIQUAFOSOL] |
